According to patent publication US6500613B1, “Pneumococcal surface proteins and uses thereof” (priority 1995, dated 2002):
Like-named read-outs stand apart in the source and are kept apart here.

Columns and labels:
pspA = assay: Amplification of pspA by PCR with oligonucleotides as 5' primers and 3' primer LSM2 (Example 11); design: species or system Streptococcus pneumoniae; conditions: 5′ primer in combination with 3′-primer LSM2, 14 strains
Experimental: These oligonucleotides were synthesized by Oligos, Etc.
PCR was done with an MJ Research, Inc., Programmable Thermal Cycler (Watertown, Mass.), using approximately 10 ng of genomic pneumococcal DNA as template with designated 5′ and 3′ primer pairs. The sample was brought to a total volume of 50 μl containing a final concentration of 50 mM KCl, 10 mM Tris-HCl (pH 8.3), 1.5 mM MgCl2, 0.01% gelatin, 0.5 μM of each primer, 200 μM of each deoxynucleoside triphosphate, and 2.5 U of Taq DNA polymerase. The samples were denatured at 94° C. for 2 minutes and subjected to 10 cycles consisting of: 1 min at 94° C., 2 min at 50° C., and 3 min at 72° C., followed by 20 cycles of: 1 min at 94° C., 2 min at 60° C., and 3 min at 72° C. After 30 total cycles, the samples were held at 72° C. for an additional 5 min prior to cooling to 4° C. The amplicons were then analyzed by agarose gel electrophoresis.

[1] = tested on: S. pneumoniae isolates MC25, MC26, MC27, MC28; format: cell-based, Streptococcus pneumoniae

Substance	Amplified/Tested (pspA)	Percent Amplified (pspA)	Penicillin MIC ([1]; isolate MC25)	Penicillin MIC ([1]; isolate MC26)	Penicillin MIC ([1]; isolate MC27)	Penicillin MIC ([1]; isolate MC28)
LSM111 (DNA CCGGATCCAGCTCCTGCACCAAAAC; chemistry not given here)	14/14	100%	–	–	–	–
Penicillin	–	–	1 µg/mL	4 µg/mL	1 µg/mL	2 µg/mL
